For orientation: ED50 means the dose at which the effect has come halfway, by size or by number of responders. Low readings indicate an effect at a small dose, high ones a need for a large dose.

The assay concerns sodium hexobarbital-induced anesthesia. The assay is described as follows: Effect on sodium hexobarbital-induced anesthesia in mice (Experiment 2 (2)). It is filed as in vivo, male mice. The note with it: Mus musculus, ip, sodium hexobarbital 100 mg/kg i.p., dose prolonging sleeping time to twice control. On the procedure: (Inhibitory effect of test compound on central nervous system in mice)
Inhibitory effect of test compound on central nervous system was examined by the following methods.
A solution or suspension of a test compound in water or an aqueous carboxymethylcellulose solution was administered intraperitoneally to male mice weighing 18 to 20 g (each group consisting of 5 mice). Thirty minutes after intraperitoneal administration of the test compound, sodium hexobarbital (100 mg/kg) was administered intraperitoneally to the mice, and the sleeping time between the loss and recovery of righting reflex was measured. The 50% effective dose (ED50) of the test compound was estimated in terms of dose which is necessary to prolong the sleeping time of the medicated mice twice as long as that of a control group (i.e., non-medicated mice).

As to `COc1cc(NC(C)=O)ccc1OCCCN1CCN(c2ccccc2F)CC1` [NO. 3 (Table 3)], the ED50 stood at 1.3 mg/kg.
